One block for each compound: values may come before it. Where no end group is shown, it is not given here. [ ]: non-standard residue; d: D form. NMeA = CN[C@@H](C)C(=O)O; Ahx = NCCCCCC(=O)O
Tests used:
[1] = system: M. persicae (peach potato/Green Peach Aphid); test: IRAC leaf dip assay on adult aphids; format: in vivo, Myzus persicae; conditions: for Peptide efficacy compared with endogenous CAPA-3: adult aphids and nymphs, scored 72, 96 and 120 hours
Protocol: Peptide efficacy (2×10^−4 M) was assessed on M. persicae (peach potato/Green Peach Aphid) using IRAC leaf dip assays on adult aphids. Peptides were administered on leaves either in DDH2O or Amino Acid Mix (Sadeghi et al., 2010) to increase uptake via feeding. Insecticide treatment was with Spirotetramat, 2×10^−4 M
Data are from 120 hours post-treatment, indicating % adult lethality (left panel); and number of nymphs per sample (right panel) for each of SB-P-1 (endogenous CAPA-3, N =26 (H2O); 15 (AA)), SB-P-14 (CAPA-3 analogue, N=5); SB-P-15 (CAPA-3 analogue, N=10). Peptide application rates are 2×10^−4 M. Note that nymph values for spirotetramat are 0.
Data are for 120 hours, indicating % adult lethality (left panel); and number of nymphs per sample (right panel). Individual data points are shown, N=5. Peptide application rates are 2×10^−4 M.

[2] = system: M. persicae CAPA receptor; test: activation assay (IP1 assay) for M. persicae CAPA receptor; format: cell-based, Myzus persicae; conditions: initial screen, FIG. 7
[3] = system: H. halys CAPA receptor; conditions: data in Ahn et al, 2020; cited from earlier work
[4] = system: Pyrokinin receptor; conditions: Brown Marmorated Stinkbug, H. halys; Ahn et al., 2020; cited from earlier work
[5] = leaf dip, peptide 2×10^−4 M, 120 hours

Compound: CCOC(=O)OC1=C(c2cc(C)ccc2C)C(=O)N[C@]12CC[C@@H](OC)CC2 [spirotetramat, Spirotetramat, reference compound]
number of nymphs per sample ([1]; 120 hours post-treatment, 2×10^−4 M): 0

activation of M. persicae CAPA receptor [2]: do not activate
Compound: H-SDSKNTALWFGPRL-NH2 [SB-P-1]
activation of H. halys CAPA receptor [3]: does not activate
activation of Pyrokinin receptor [4]: activate

Compound: Hy-Ahx-SDSKNT[n-me-A]LWFGPRL-[NH2] ([Ahx]SDSKNT[NMeA]LWFGPRL-NH2; N-terminus assumed; SMILES CC(C)C[C@H](NC(=O)[C@H](CCCNC(=N)N)NC(=O)[C@@H]1CCCN1C(=O)CNC(=O)[C@H](Cc1ccccc1)NC(=O)[C@H](Cc1c[nH]c2ccccc12)NC(=O)[C@H](CC(C)C)NC(=O)[C@H](C)N(C)C(=O)[C@@H](NC(=O)[C@H](CC(N)=O)NC(=O)[C@H](CCCCN)NC(=O)[C@H](CO)NC(=O)[C@H](CC(=O)O)NC(=O)[C@H](CO)NC(=O)CCCCCN)[C@@H](C)O)C(N)=O) [SB-P-14]
Peptide efficacy compared with endogenous CAPA-3 ([1]; leaf dip, peptide 2×10^−4 M): did not perform as well as endogenous CAPA-3

activation of M. persicae CAPA receptor [2]: do not activate
Compound: Hy-SDSKNT[n-me-A]LWFGPRL-[nh2] [SB-P-15]
Peptide efficacy compared with endogenous CAPA-3 ([1]; leaf dip, peptide 2×10^−4 M): an improvement on endogenous CAPA-3 efficacy
aphicidal efficacy (adult lethality) [1, 5]: highly effective
nymphicidal efficacy [1, 5]: highly effective
